Experimental data published in US20230263822A1, “MODULATION OF FACTOR 11 EXPRESSION” (Ionis Pharmaceuticals, Inc., priority 2008, published 2023).
Strand notation (5' to 3'): a small letter for the sugar, then the base; units joined by * are phosphorothioate-linked, units joined directly phosphodiester-linked; [ ] holds rarer units or linkages, { } end groups; capitals alone tell only the bases. e = 2'-O-(2-methoxyethyl) (MOE); [5mC] = 5-methylcytosine; d = 2'-deoxy (DNA)

Key:
Type in all cases: in vivo
[1] = system: IL-1β, IL-6, IFN-γ, TNF-α, IL-8, MIP-1α, MCP-1, MIP-1β, RANTES; assay: Cytokine and chemokine assays in cynomolgus monkeys (Example 46)
Method: (§1) Groups, each consisting of two male and two female monkeys, were injected subcutaneously with 25 mg/kg of ISIS 416850, ISIS 449709, ISIS 445522, ISIS 449710, ISIS 449707, ISIS 449711, ISIS 449708, 416858, and ISIS 445531. Antisense oligonucleotide was administered to the monkeys at 25 mg/kg three times per week for week 1 and 25 mg/kg twice per week for weeks 2 to 8. A control group, consisting of two male and two female monkeys was injected subcutaneously with PBS according to the same dosing regimen. Body weights were taken 14 days and 7 days before the start of treatment and were then measured weekly throughout the treatment period. Blood samples were collected 14 days and 5 days before the start of treatment and subsequently several times during the dosing regimen for PT and aPTT measurements, and measurement of various hematologic factors. On day 55, the monkeys were euthanized by exsanguination while under deep anesthesia, and organs harvested for further analysis.
Blood samples obtained from all monkey groups were sent to Pierce Biotechnology (Woburn, Mass.) for measurements of chemokine and cytokine levels. Levels of IL-1β, IL-6, IFN-γ, and TNF-α were measured using the respective primate antibodies and levels of IL-8, MIP-1α, MCP-1, MIP-1β and RANTES were measured using the respective cross-reacting human antibodies. Measurements were taken 14 days before the start of treatment and on day 55, when the monkeys were euthanized.

[2] = Kidney function, BUN, urine protein to creatinine ratio in cynomolgus monkeys (Example 46); conditions: for Urine protein/creatinine ratio: day 49
Method: as §1
To evaluate the impact of ISIS oligonucleotides on kidney function, urine samples were collected on different days. […] The ratio of urine protein to creatinine in urine samples after antisense oligonucleotide treatment was also calculated for day 49 and results are presented in Table 156. As observed in Tables 155 and 156, there were no significant increases in any of the kidney metabolic markers after antisense oligonucleotide treatment.

[3] = Body and organ weights of cynomolgus monkeys (Example 46); parameters: Liver weight / Spleen weight / Kidney weight: unit not given here; conditions: for Kidney weight / Liver weight / Spleen weight: day 55, after euthanasia
Method: as §1
Organ weights were taken after the animals were euthanized on day 55, and livers, kidneys and spleens were harvested.

[4] = day-14 (before start of treatment)
[5] = Day −5 (before start of treatment)
[6] = Day −14 (before start of treatment)

ISIS 416850: MOE gapmer, nucleobases 1275 to 1318 of SEQ ID NO: 1 (Table 8) (antisense TGCACAGTTTCTGGCAGGCC; MOE gapmer, wing and gap sizes not given here)
IFN-γ level ([1]; day 55): 19 pg/mL
IL-1ß level ([1]; day 55): 106 pg/mL
IL-6 level ([1]; day 55): 1 pg/mL
IL-8 level ([1]; day 55): 620 pg/mL
MCP-1 level ([1]; day 55): 887 pg/mL
MIP-1ß level ([1]; day 55): 50 pg/mL
MIP-1α level ([1]; day 55): 17 pg/mL
RANTES level ([1]; day 55): 27503 pg/mL
TNF-α level ([1]; day 55): 16 pg/mL
IFN-γ level [1, 4]: 115 pg/mL
IL-1ß level [1, 4]: 215 pg/mL
IL-6 level [1, 4]: 1 pg/mL
IL-8 level [1, 4]: 45 pg/mL
MCP-1 level [1, 4]: 434 pg/mL
MIP-1ß level [1, 4]: 31 pg/mL
MIP-1α level [1, 4]: 14 pg/mL
RANTES level [1, 4]: 4560 pg/mL
TNF-α level [1, 4]: 4 pg/mL
BUN levels ([2]; Day 31): 21 mg/dL
BUN levels ([2]; Day 55): 26 mg/dL
BUN levels [2, 5]: 23 mg/dL
BUN levels [2, 6]: 24 mg/dL
Urine protein/creatinine ratio [2]: 0.08
body weight ([3]; day 1): 2083 g
body weight ([3]; day 8): 2072 g
body weight ([3]; day 15): 2147 g
body weight ([3]; day 22): 2139 g
body weight ([3]; day 29): 2159 g
body weight ([3]; day 36): 2136 g
body weight ([3]; day 43): 2186 g
body weight ([3]; day 50): 2143 g
Kidney weight [3]: 0.51
Liver weight [3]: 2.5
Spleen weight [3]: 0.17
body weight ([3]; day −7): 2074 g
body weight ([3]; day −14): 2061 g

ISIS 416858: MOE gapmer, nucleobases 1275 to 1318 of SEQ ID NO: 1 (Table 8) (antisense ACGGCATTGGTGCACAGTTT; MOE gapmer, wing and gap sizes not given here)
IFN-γ level ([1]; day 55): 9 pg/mL
IL-1ß level ([1]; day 55): 28 pg/mL
IL-6 level ([1]; day 55): 1 pg/mL
IL-8 level ([1]; day 55): 167 pg/mL
MCP-1 level ([1]; day 55): 512 pg/mL
MIP-1ß level ([1]; day 55): 47 pg/mL
MIP-1α level ([1]; day 55): 11 pg/mL
RANTES level ([1]; day 55): 5925 pg/mL
TNF-α level ([1]; day 55): 15 pg/mL
IFN-γ level [1, 4]: 32 pg/mL
IL-1ß level [1, 4]: 103 pg/mL
IL-6 level [1, 4]: 0 pg/mL
IL-8 level [1, 4]: 224 pg/mL
MCP-1 level [1, 4]: 328 pg/mL
MIP-1ß level [1, 4]: 37 pg/mL
MIP-1α level [1, 4]: 11 pg/mL
RANTES level [1, 4]: 6521 pg/mL
TNF-α level [1, 4]: 4 pg/mL
BUN levels ([2]; Day 31): 23 mg/dL
BUN levels ([2]; Day 55): 24 mg/dL
BUN levels [2, 5]: 24 mg/dL
BUN levels [2, 6]: 25 mg/dL
Urine protein/creatinine ratio [2]: 0.05
body weight ([3]; day 1): 2115 g
body weight ([3]; day 8): 2149 g
body weight ([3]; day 15): 2162 g
body weight ([3]; day 22): 2188 g
body weight ([3]; day 29): 2196 g
body weight ([3]; day 36): 2210 g
body weight ([3]; day 43): 2238 g
body weight ([3]; day 50): 2225 g
Kidney weight [3]: 0.47
Liver weight [3]: 2.6
Spleen weight [3]: 0.24
body weight ([3]; day −7): 2092 g
body weight ([3]; day −14): 2073 g

ISIS 445522: 5-8-5 or 6-8-6 MOE microwalk gapmer (Table 44) (antisense eG*e[5mC]*eA*e[5mC]*eA*dG*dT*dT*dT*d[5mC]*dT*dG*dG*e[5mC]*eA*eG*eG*e[5mC])
IFN-γ level ([1]; day 55): 83 pg/mL
IL-1ß level ([1]; day 55): 341 pg/mL
IL-6 level ([1]; day 55): 2 pg/mL
IL-8 level ([1]; day 55): 100 pg/mL
MCP-1 level ([1]; day 55): 592 pg/mL
MIP-1ß level ([1]; day 55): 63 pg/mL
MIP-1α level ([1]; day 55): 22 pg/mL
RANTES level ([1]; day 55): 16154 pg/mL
TNF-α level ([1]; day 55): 18 pg/mL
IFN-γ level [1, 4]: 172 pg/mL
IL-1ß level [1, 4]: 188 pg/mL
IL-6 level [1, 4]: 5 pg/mL
IL-8 level [1, 4]: 32 pg/mL
MCP-1 level [1, 4]: 297 pg/mL
MIP-1ß level [1, 4]: 27 pg/mL
MIP-1α level [1, 4]: 22 pg/mL
RANTES level [1, 4]: 3477 pg/mL
TNF-α level [1, 4]: 16 pg/mL
BUN levels ([2]; Day 31): 22 mg/dL
BUN levels ([2]; Day 55): 22 mg/dL
BUN levels [2, 5]: 22 mg/dL
BUN levels [2, 6]: 23 mg/dL
Urine protein/creatinine ratio [2]: 0.01
body weight ([3]; day 1): 2047 g
body weight ([3]; day 8): 2094 g
body weight ([3]; day 15): 2092 g
body weight ([3]; day 22): 2114 g
body weight ([3]; day 29): 2125 g
body weight ([3]; day 36): 2121 g
body weight ([3]; day 43): 2142 g
body weight ([3]; day 50): 2127 g
Kidney weight [3]: 0.55
Liver weight [3]: 2.6
Spleen weight [3]: 0.23
body weight ([3]; day −7): 2042 g
body weight ([3]; day −14): 2050 g
